Earlier results in patent publication US6773610B2, “Method for controlling biofilm” (priority 1999, dated 2004).

Tested on: bacteria and viruses
Conditions: versus chlorine

O=[O+][O-] [Ozone]
Speed of deactivation of bacteria and viruses relative to chlorine: 3125 times faster
